Laboratory results from article PMC5601625, “Defining a therapeutic window for kinase inhibitors in leukemia to avoid neutropenia” (Oncotarget, 2017).
“Also recorded” adds a separate entry of the source. Read-outs that look alike come from different tables or passages of the source.

Experiments:
[1] = tested on: primary murine bone-marrow neutrophils; assay: Live cell imaging viability of primary bone-marrow neutrophils; details: for effect on mouse neutrophil viability (words): G-CSF- or GM-CSF-primed, inhibitors at 1 μM, over 24 hours
Excerpt: Using a high-throughput live cell imaging approach reported previously [15], we examined the effect of the kinase inhibitors on the viability of bone marrow neutrophils to determine their potential to cause neutropenia (Figure 2). Because G-CSF and GM-CSF are dominant regulators of granulopoiesis and neutrophil survival, and are commonly used in a clinical setting to mobilize hematopoietic stem cells into the blood and increase neutrophil production [27–31], we treated cells with these cytokines immediately prior to drug exposure. The addition of either cytokine prevents constitutive neutrophil apoptosis thereby increasing the window for detection of changes in viability induced by drug treatments.
For all above, data represent mean ± SEM from three independent samples.
Mouse bone marrow neutrophils were prepared as described [15]. Neutrophils were resuspended in phenol red-free DMEM/10% FBS for imaging studies. The purity of neutrophil preparations was routinely 96% ± 4% (Mean ± SD, n = 50) as assessed by cytology following May-Grünwald/Giemsa staining.
Kinase inhibitors were purchased from SYN kinase (Melbourne, Australia) and were used at 1 μM, unless otherwise specified, with dilutions performed in assay buffer containing 0.1% DMSO.
Viability was monitored using 2 μg/mL PI (Sigma). Images were captured every 30-60 min by the Zeiss Axiovert 200M Microscope at 37 °C/10% CO2. Quantitative analysis was performed using a custom-scripted MetaMorph (Molecular Devices) journal suite incorporating the count nuclei function, reconstruction & subtraction functions and Integrated Morphometry Analysis to select and analyze cells of interest.

[2] = tested on: EOL-1; assay: Cell Titer Glo cell viability assay, 48 h; type: cell-based, human; details: 48 h, mean of 2 independent experiments, 0 = less than 10 nM, cell line not given, read-out: IC50 of inhibitors on cell lines, m (mean)
Protocol: (§1) The activity of the kinase inhibitor collection against a panel of human leukemia cell lines was determined in cell viability assays run over 48 h using the Cell Titer Glo reagent.
(§2) Figure 1 Effects of kinase inhibition on the proliferation of leukemia cells A. Human leukemia cell lines were treated with duplicate serial dilutions of kinase inhibitors and the effect on cell viability was determined by Cell Titer Glo assay after 48 hours. […] HL-60 cells were treated with serial dilutions of mTor/PI3K B. and MEK C. inhibitors and the effect on cell viability was determined after 48 hours. Data shown is the mean ± SEM of 3 independent experiments.
(§3) Leukemia and lymphoma cell lines were grown in RPMI containing 10% FCS. […] Cell lines are routinely tested for mycoplasma and genotyped by short tandem repeating (STR) profiling to confirm identity.
(§4) Compounds were obtained from SynMedChem and dissolved at […] in DMSO. Serial 2-fold dilutions of each compound were prepared in DMSO using a liquid handling robot (Janus, Perkin Elmer). Each dilution (100nL) was transferred to duplicate tissue culture plates containing 50 μL of media containing 5 × 10^3 cells using a 384 well pin tool. Cells were incubated for 48 h and cell viability was determined using Cell Titer Glow reagents as described by the manufacturer (Promega). Data was acquired using a luminescent plate reader (Envision, Perkin Elmer) and analysed using Activity Base (IDBS, Guilford, UK) and visualised using Spotfire (TIBCO, Palo Alto, CA) as described previously. Each cell line was assayed in independent experiments on at least two occasions. […] Serial 2-fold dilutions of each compound were prepared in media containing 0.2% DMSO and 50 μl of each dilution was added to 10^4 cells in 50 μl of media. Cells were incubated for 48 h and cell viability was determined using Cell Titer Glow assay as described above.

[3] = tested on: HEL.92.1.7; assay: Cell Titer Glo cell viability assay, 48 h; type: cell-based, human; details: 48 h, mean of 2 independent experiments, 0 = less than 10 nM, cell line not given, read-out: IC50 of inhibitors on cell lines, m (mean)
Protocol: as §1, §2, §3, §4

[4] = tested on: MEG-01; assay: Cell Titer Glo cell viability assay, 48 h; type: cell-based, human; details: 48 h, mean of 2 independent experiments, 0 = less than 10 nM, cell line not given, read-out: IC50 of inhibitors on cell lines, m (mean)
Protocol: as §1, §2, §3, §4

[5] = tested on: MV4;11; assay: Cell Titer Glo cell viability assay, 48 h; type: cell-based, human; details: 48 h, mean of 2 independent experiments, 0 = less than 10 nM, cell line not given, read-out: IC50 of inhibitors on cell lines, m (mean)
Protocol: as §1, §2, §3, §4

[6] = tested on: MOLT4; assay: Cell Titer Glo cell viability assay, 48 h; type: cell-based, human; details: 48 h, mean of 2 independent experiments, 0 = less than 10 nM, cell line not given, read-out: IC50 of inhibitors on cell lines, m (mean)
Protocol: as §1, §2, §3, §4

[7] = tested on: THP-1; assay: Cell Titer Glo cell viability assay, 48 h; type: cell-based, human; details: 48 h, mean of 2 independent experiments, 0 = less than 10 nM, cell line not given, read-out: IC50 of inhibitors on cell lines, m (mean)
Protocol: as §1, §2, §3, §4

[8] = tested on: HL-60; assay: Cell Titer Glo cell viability assay, 48 h; type: cell-based, human; details: 48 h, mean of 2 independent experiments, 0 = less than 10 nM, cell line not given, read-out: IC50 of inhibitors on cell lines, m (mean)
Protocol: as §1, §2, §3, §4

[9] = tested on: K562; assay: Cell Titer Glo cell viability assay, 48 h; type: cell-based, human; details: 48 h, mean of 2 independent experiments, 0 = less than 10 nM, cell line not given, read-out: IC50 of inhibitors on cell lines, m (mean)
Protocol: as §1, §2, §3, §4

[10] = tested on: OCI-AML3; assay: Cell Titer Glo cell viability assay, 48 h; type: cell-based, human; details: 48 h, mean of 2 independent experiments, 0 = less than 10 nM, cell line not given, read-out: IC50 of inhibitors on cell lines, m (mean)
Protocol: as §1, §2, §3, §4

[11] = tested on: JURKAT; assay: Cell Titer Glo cell viability assay, 48 h; type: cell-based, human; details: 48 h, mean of 2 independent experiments, 0 = less than 10 nM, cell line not given, read-out: IC50 of inhibitors on cell lines, m (mean)
Protocol: as §1, §2, §3, §4

[12] = tested on: KU-812; assay: Cell Titer Glo cell viability assay, 48 h; type: cell-based, human; details: 48 h, mean of 2 independent experiments, 0 = less than 10 nM, cell line not given, read-out: IC50 of inhibitors on cell lines, m (mean)
Protocol: as §1, §2, §3, §4

[13] = tested on: U937; assay: Cell Titer Glo cell viability assay, 48 h; type: cell-based, human; details: 48 h, mean of 2 independent experiments, 0 = less than 10 nM, cell line not given, read-out: IC50 of inhibitors on cell lines, m (mean)
Protocol: as §1, §2, §3, §4

| SMILES | effect on mouse neutrophil viability (words) [1] | IC50 ([2]; Homo sapiens, EOL1) [nM] | IC50 ([3]; Homo sapiens) [µM] | IC50 ([4]; Homo sapiens) [µM] | IC50 ([5]; Homo sapiens) [nM] | IC50 ([6]; Homo sapiens, MOLT-4) [µM] | IC50 ([7]; Homo sapiens) [µM] | IC50 ([8]; Homo sapiens) [µM] | IC50 ([9]; Homo sapiens) [µM] | IC50 ([10]; Homo sapiens, OCI-AML-3) [µM] | IC50 ([11]; Homo sapiens) [µM] | IC50 ([12]; Homo sapiens, KU812) [µM] | IC50 ([13]; Homo sapiens, U-937) [µM] | other results |
| --- | --- | --- | --- | --- | --- | --- | --- | --- | --- | --- | --- | --- | --- | --- |
| CN(C)CC[C@H](CSc1ccccc1)Nc1ccc(S(=O)(=O)NC(=O)c2ccc(N3CCN(Cc4ccccc4-c4ccc(Cl)cc4)CC3)cc2)cc1[N+](=O)[O-] [ABT-737] | no impact on mouse neutrophil viability; also recorded: minimal effects on neutrophils |  |  |  |  |  |  |  |  |  |  |  |  |  |
| O=C(Nc1c[nH]nc1-c1nc2cc(CN3CCOCC3)ccc2[nH]1)NC1CC1 [AT9283] | significantly affected neutrophil viability |  |  |  |  |  |  |  |  |  |  |  |  | effect on mouse neutrophil viability (words) ([1]; listed as AT-9283): cytotoxicity |
| Cc1cc(Nc2nc(N[C@@H](C)c3ccc(F)cc3)c(C#N)cc2F)n[nH]1 [AZ-960] | significantly affected neutrophil viability |  |  |  |  |  |  |  |  |  |  |  |  |  |
| Cc1cc(Nc2nc(N[C@@H](C)c3ncc(F)cn3)ncc2Cl)n[nH]1 [AZD1480] | significantly affected neutrophil viability |  |  |  |  |  |  |  |  |  |  |  |  | effect on mouse neutrophil viability (words) ([1]; listed as AZD-1480): cytotoxicity |
| C[C@@H]1CCN(C(=O)CC#N)C[C@@H]1N(C)c1ncnc2[nH]ccc12 [CP690550] | did not |  |  |  |  |  |  |  |  |  |  |  |  |  |
| N#CCNC(=O)c1ccc(-c2ccnc(Nc3ccc(N4CCOCC4)cc3)n2)cc1 [CYT387] | did not |  |  |  |  |  |  |  |  |  |  |  |  |  |
| CN1CC[C@H](c2c(O)cc(O)c3c(=O)cc(-c4ccccc4Cl)oc23)[C@H](O)C1 [Flavopiridol] | induced rapid cell death |  |  |  |  |  |  |  |  |  |  |  |  | effect on mouse neutrophil viability (words) ([1]; listed as flavopiridol): significant impact on neutrophil viability |
| CCc1c2c(nc3ccc(O)cc13)-c1cc3c(c(=O)n1C2)COC(=O)[C@]3(O)CC [SN-38] |  |  |  |  |  |  |  |  |  |  |  |  |  | effect of chemotherapeutics on neutrophil viability ([1]; GM-CSF-primed, dose-dependent, Figure 5D): potently decreased neutrophil viability |
| Cc1[nH]c(/C=C2\C(=O)Nc3ccccc32)c(C)c1CCC(=O)O [SU-6668] |  | 840 | > 10 | > 10 | 5110 | > 10 | > 10 | > 10 | 8.11 | > 10 | > 10 | > 10 | > 10 |  |
| CCN(CC)CCNC(=O)c1c(C)[nH]c(/C=C2\C(=O)Nc3ccc(F)cc32)c1C [Sunitinib] |  | 10 | 2.61 | 2.39 | 10 | 2.54 | 1.8 | 1.46 | 4.75 | 1.02 | 1.62 | 1.56 | 1.16 |  |
| CCc1nc(-c2cccc(C)c2)c(-c2ccnc(NC(=O)c3ccccc3)c2)s1 [TAK-715] |  | 2330 | > 10 | 7.37 | 7800 | > 10 | > 10 | > 10 | 7.41 | > 10 | 9.58 | 6.14 | 4.11 |  |
| Cc1cc(C(C)Nc2ccccc2)c2nc(N3CCOCC3)cc(=O)n2c1 (centres unmarked) [TGX221] |  |  |  |  |  |  |  |  |  |  |  |  |  | IC50 [2]: 430 nM; IC50 [3]: > 10 µM; IC50 [4]: > 10 µM; IC50 [5]: 650 nM; IC50 [6]: > 10 µM; IC50 [7]: > 10 µM; IC50 [8]: > 10 µM; IC50 [9]: 9.16 µM; IC50 [10]: 9.72 µM; IC50 [11]: 9.84 µM; IC50 [12]: > 10 µM; IC50 [13]: 9.85 µM |
| CN(C)C/C=C/C(=O)Nc1cc2c(Nc3ccc(F)c(Cl)c3)ncnc2cc1O[C@H]1CCOC1 [TOVOK] |  | 680 | 1.94 | 5.02 | 440 | 2.37 | 4.31 | 1.8 | 5.72 | 3.36 | 2.11 | 2.71 | 2.06 |  |
| COc1cc2c(N3CCN(C(=O)Nc4ccc(OC(C)C)cc4)CC3)ncnc2cc1OCCCN1CCCCC1 [Tandutinib] |  | 20 | > 10 | 7.91 | 80 | 9.77 | 7.42 | 7.58 | 8.85 | 4.87 | 4.38 | 6.6 | 7.44 |  |
| NC(=O)c1ccc(N(C(N)=O)c2c(F)cccc2F)nc1-c1ccc(F)cc1F [VX702] |  | 5500 | > 10 | > 10 | > 10000 | > 10 | > 10 | > 10 | > 10 | > 10 | > 10 | > 10 | > 10 |  |
| Cc1cc(Nc2cc(N3CCN(C)CC3)nc(Sc3ccc(NC(=O)C4CC4)cc3)n2)[nH]n1 [VX-680] |  | 70 | 7.99 | 0.53 | 50 | 2.59 | 5.75 | 2.45 | 0.43 | 0.8 | 4.96 | 0.18 | 5.46 |  |
| COc1cc2c(Nc3ccc(Br)cc3F)ncnc2cc1OCC1CCN(C)CC1 [Vandetanib] |  | 190 | > 10 | 1.51 | 860 | 6.79 | > 10 | 7.28 | 2.73 | > 10 | 6.28 | 0.82 | 9.46 |  |
| Nc1ccc(C(=O)Nc2cccc(-c3nc(N4CCOCC4)c4oc5ncccc5c4n3)c2)cn1 [YM201636] |  |  |  |  |  |  |  |  |  |  |  |  |  | IC50 [2]: 5880 nM; IC50 [3]: 7.14 µM; IC50 [4]: 9.12 µM; IC50 [5]: 7330 nM; IC50 [6]: 6.99 µM; IC50 [7]: 8.78 µM; IC50 [8]: 4.82 µM; IC50 [9]: 9.65 µM; IC50 [10]: 3.88 µM; IC50 [11]: 3.94 µM; IC50 [12]: 4.28 µM; IC50 [13]: 2.39 µM |
